The text below walks through data of ChEMBL document CHEMBL5653615 (J Biol Chem, 2013).

Broadly, the inhibition is the drop in the measured response relative to a control, in per cent. In general, IC50 refers to the concentration that gives 50% inhibition. Low readings indicate inhibition by little substance, high ones a need for much substance.

For test [1], the target named is Tyrosine-protein kinase Fes/Fps (Homo sapiens) (UniProt P07332). The test is described as follows: Inhibition of human FES at 500 nM by HotSpot assay relative to control.
Test [2] concerns the target Calcium/calmodulin-dependent protein kinase type 1B (Homo sapiens) (UniProt Q6P2M8). The test can be described thus: Inhibition of human CAMK1b at 500 nM by HotSpot assay relative to control.
In test [3] the target is T1, Mitogen-activated protein kinase 13 (Homo sapiens) (UniProt O15264).
T1 sequence (whole entry): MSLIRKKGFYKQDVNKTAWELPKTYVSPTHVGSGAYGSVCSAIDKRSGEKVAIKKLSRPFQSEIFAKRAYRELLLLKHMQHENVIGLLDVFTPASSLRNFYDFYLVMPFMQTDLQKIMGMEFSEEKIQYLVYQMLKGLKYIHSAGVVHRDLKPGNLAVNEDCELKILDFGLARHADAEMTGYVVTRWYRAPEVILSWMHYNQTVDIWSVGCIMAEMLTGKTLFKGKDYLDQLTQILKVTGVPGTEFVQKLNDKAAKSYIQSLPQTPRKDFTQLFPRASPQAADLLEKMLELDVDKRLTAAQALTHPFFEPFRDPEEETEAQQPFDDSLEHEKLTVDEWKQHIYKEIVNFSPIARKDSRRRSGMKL
The test is described as follows: Inhibition of human MAPK13 at 500 nM by HotSpot assay relative to control.

Test [4] addresses T2, Tyrosine-protein kinase TXK (Homo sapiens) (UniProt P42681).
T2 sequence (whole entry): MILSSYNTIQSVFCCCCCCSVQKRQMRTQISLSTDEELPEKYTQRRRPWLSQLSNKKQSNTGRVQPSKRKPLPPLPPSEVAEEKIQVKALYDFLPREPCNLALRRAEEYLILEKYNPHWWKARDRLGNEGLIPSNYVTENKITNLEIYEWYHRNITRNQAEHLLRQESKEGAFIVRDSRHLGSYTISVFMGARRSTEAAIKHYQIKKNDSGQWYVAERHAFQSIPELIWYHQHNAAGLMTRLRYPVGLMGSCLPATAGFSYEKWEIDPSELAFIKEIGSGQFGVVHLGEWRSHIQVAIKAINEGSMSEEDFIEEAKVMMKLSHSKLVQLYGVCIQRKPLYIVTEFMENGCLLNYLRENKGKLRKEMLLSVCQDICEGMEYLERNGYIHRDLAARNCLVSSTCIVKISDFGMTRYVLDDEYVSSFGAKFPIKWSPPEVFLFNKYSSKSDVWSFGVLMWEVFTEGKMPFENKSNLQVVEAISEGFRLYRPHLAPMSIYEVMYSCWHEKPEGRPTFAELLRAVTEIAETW
The test is described as follows: Inhibition of human TXK at 500 nM by HotSpot assay relative to control.

Test [5] concerns the target Mitogen-activated protein kinase kinase kinase kinase 4 (Homo sapiens) (UniProt O95819). The test is described as follows: Inhibition of human HGK at 500 nM by HotSpot assay relative to control.
Test [6] deals with T3, Tyrosine-protein kinase ITK/TSK (Homo sapiens) (UniProt Q08881).
T3 sequence (whole entry): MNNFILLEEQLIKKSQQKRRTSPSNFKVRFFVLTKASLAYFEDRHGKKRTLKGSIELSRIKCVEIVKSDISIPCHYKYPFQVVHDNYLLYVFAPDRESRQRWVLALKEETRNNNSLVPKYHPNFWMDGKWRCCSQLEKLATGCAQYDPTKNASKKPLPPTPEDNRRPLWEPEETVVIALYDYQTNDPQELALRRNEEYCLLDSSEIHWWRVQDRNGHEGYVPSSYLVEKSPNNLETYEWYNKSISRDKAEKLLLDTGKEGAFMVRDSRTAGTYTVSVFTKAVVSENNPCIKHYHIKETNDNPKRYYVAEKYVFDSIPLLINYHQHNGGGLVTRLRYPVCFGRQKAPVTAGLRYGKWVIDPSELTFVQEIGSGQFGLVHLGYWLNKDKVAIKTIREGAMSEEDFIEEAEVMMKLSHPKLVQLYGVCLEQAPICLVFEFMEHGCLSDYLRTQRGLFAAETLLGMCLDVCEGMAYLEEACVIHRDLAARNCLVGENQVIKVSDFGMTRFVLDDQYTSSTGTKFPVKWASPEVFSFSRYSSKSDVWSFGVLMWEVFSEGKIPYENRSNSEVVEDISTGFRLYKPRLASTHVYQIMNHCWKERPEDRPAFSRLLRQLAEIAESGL
The test can be described thus: Inhibition of human ITK at 500 nM by HotSpot assay relative to control.

For test [7], the target named is Ribosomal protein S6 kinase beta-2 (Homo sapiens) (UniProt Q9UBS0). The test is described as follows: Inhibition of human RPS6KB2 at 500 nM by HotSpot assay relative to control.
In test [8] the target is Insulin-like growth factor 1 receptor (Homo sapiens, UniProt P08069). The test is described as follows: Inhibition of inactive form of IGF-1R (unknown origin) kinase domain incubated for 1 hr by [gamma-33P]ATP assay.
Test [9] has as its target T4, TGF-beta receptor type-1 (Homo sapiens) (UniProt P36897).
T4 sequence (whole entry): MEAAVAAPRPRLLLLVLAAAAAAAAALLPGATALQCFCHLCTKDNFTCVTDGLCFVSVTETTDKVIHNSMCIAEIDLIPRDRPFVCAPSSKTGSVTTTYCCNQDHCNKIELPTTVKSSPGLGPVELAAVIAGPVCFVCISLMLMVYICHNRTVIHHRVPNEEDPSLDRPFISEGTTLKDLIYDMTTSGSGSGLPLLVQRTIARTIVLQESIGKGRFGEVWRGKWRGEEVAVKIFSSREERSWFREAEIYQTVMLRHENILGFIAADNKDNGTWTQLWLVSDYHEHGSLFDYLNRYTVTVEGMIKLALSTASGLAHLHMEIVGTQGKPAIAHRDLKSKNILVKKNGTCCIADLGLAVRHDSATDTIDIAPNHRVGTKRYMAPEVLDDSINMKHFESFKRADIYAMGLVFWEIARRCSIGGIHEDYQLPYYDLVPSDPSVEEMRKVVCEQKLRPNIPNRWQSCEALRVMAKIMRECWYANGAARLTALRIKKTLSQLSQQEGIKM
The test can be described thus: Inhibition of human ALK5 at 500 nM by HotSpot assay relative to control.

Test [10] has as its target Homeodomain-interacting protein kinase 3 (Homo sapiens) (UniProt Q9H422). The test is described as follows: Inhibition of human HIPK3 at 500 nM by HotSpot assay relative to control.
Test [11] has as its target Serine/threonine-protein kinase PLK2 (Homo sapiens) (UniProt Q9NYY3). The test is described as follows: Inhibition of human PLK2 at 500 nM by HotSpot assay relative to control.
Test [12] has as its target Serine/threonine-protein kinase MARK2 (Homo sapiens) (UniProt Q7KZI7). The test can be described thus: Inhibition of human PAR-1Ba at 500 nM by HotSpot assay relative to control.
For test [13], the target named is Dual specificity mitogen-activated protein kinase kinase 1 (Homo sapiens) (UniProt Q02750). The test is described as follows: Inhibition of human MEK1 at 500 nM by HotSpot assay relative to control.
Test [14] addresses CDK6/cyclin D3 (Homo sapiens) (UniProt P30281+Q00534). The test is described as follows: Inhibition of human CDK6/cyclin D3 at 500 nM by HotSpot assay relative to control. Format: protein-complex assay.

Structures are written as SMILES.

Sequence of Homeodomain-interacting protein kinase 3 (Homo sapiens) (Q9H422 whole entry, looked up): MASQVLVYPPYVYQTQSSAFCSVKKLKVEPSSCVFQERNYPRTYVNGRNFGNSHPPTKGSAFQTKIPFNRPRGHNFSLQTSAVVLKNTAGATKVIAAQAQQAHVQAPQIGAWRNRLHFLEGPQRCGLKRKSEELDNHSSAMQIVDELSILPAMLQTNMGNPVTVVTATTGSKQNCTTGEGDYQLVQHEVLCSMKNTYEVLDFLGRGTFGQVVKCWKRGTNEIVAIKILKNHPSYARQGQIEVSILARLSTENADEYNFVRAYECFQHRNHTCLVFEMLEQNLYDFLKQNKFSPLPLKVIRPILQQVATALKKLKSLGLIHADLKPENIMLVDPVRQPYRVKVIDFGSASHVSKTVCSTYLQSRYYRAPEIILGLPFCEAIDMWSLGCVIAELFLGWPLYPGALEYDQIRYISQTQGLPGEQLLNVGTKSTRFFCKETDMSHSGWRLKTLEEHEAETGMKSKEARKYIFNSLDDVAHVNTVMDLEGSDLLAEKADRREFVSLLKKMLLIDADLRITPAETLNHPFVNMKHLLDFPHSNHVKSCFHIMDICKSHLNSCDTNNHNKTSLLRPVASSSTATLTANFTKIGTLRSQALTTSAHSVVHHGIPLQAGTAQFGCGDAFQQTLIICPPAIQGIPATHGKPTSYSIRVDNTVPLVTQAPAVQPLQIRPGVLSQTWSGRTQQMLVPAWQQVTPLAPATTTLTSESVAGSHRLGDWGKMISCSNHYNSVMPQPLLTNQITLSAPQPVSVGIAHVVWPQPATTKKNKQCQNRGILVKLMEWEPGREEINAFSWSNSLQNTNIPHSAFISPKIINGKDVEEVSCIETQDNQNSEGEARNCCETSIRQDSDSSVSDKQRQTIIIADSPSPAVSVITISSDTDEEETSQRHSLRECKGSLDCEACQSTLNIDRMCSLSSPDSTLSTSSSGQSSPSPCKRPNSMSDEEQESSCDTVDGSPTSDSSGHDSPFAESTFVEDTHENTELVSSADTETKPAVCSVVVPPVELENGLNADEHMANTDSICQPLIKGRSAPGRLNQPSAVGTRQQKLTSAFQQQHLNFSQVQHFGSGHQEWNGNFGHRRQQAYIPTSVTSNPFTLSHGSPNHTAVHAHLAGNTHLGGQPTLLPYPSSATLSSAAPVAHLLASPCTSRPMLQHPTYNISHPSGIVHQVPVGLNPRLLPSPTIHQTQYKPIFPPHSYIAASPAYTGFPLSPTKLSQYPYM
Sequence of Serine/threonine-protein kinase PLK2 (Homo sapiens) (Q9NYY3 whole entry, looked up): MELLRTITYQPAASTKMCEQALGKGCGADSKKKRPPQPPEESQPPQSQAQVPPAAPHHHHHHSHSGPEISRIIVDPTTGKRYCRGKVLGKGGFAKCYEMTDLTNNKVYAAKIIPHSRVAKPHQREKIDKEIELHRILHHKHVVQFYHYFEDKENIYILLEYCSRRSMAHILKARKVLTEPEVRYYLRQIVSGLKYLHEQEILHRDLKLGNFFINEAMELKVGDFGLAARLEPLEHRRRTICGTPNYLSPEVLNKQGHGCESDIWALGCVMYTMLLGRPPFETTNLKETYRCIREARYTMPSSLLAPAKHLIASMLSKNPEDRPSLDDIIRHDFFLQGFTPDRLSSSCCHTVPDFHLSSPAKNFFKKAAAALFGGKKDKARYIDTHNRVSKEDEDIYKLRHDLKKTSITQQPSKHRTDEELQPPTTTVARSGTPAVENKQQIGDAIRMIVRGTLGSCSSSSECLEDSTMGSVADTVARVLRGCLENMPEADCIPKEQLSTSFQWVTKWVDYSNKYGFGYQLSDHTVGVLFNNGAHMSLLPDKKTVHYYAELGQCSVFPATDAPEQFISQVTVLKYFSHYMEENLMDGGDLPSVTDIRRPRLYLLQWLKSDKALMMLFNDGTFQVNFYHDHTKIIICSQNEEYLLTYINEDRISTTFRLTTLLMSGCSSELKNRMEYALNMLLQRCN
Sequence of Tyrosine-protein kinase Fes/Fps (Homo sapiens) (P07332 whole entry): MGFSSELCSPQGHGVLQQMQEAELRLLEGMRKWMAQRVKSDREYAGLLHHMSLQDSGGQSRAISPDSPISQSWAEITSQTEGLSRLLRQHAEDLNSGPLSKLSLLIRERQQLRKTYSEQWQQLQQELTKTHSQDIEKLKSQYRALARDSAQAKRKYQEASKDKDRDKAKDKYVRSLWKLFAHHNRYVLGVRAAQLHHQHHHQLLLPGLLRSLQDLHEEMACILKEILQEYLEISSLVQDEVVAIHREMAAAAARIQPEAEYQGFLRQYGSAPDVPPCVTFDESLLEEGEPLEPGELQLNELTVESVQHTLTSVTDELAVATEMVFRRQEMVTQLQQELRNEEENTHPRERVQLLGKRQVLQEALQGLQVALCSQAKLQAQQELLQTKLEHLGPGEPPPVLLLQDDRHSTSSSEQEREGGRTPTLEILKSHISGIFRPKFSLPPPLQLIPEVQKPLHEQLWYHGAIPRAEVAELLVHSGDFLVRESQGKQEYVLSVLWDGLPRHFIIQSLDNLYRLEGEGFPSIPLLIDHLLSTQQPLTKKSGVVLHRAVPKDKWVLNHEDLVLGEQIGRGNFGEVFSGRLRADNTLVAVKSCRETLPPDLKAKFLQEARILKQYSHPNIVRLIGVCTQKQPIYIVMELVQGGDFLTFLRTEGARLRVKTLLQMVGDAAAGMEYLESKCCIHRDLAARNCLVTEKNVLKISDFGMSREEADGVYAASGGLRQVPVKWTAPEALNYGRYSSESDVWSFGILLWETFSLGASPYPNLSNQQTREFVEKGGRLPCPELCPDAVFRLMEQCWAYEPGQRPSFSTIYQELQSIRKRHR
Sequence of Ribosomal protein S6 kinase beta-2 (Homo sapiens) (Q9UBS0 whole entry, the tested form may be a part): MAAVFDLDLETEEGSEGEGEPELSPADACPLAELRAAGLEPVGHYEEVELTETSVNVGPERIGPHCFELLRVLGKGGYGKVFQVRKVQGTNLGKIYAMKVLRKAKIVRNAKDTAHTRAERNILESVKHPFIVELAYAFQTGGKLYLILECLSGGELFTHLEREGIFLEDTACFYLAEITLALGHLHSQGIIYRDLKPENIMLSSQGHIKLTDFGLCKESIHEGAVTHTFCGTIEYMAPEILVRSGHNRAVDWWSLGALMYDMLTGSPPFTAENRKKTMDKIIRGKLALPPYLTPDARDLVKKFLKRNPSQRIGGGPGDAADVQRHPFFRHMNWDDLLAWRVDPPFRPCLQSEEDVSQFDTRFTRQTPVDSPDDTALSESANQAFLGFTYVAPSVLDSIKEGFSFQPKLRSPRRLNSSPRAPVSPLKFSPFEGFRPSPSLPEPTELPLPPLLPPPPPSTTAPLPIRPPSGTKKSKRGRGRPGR
Sequence of Mitogen-activated protein kinase kinase kinase kinase 4 (Homo sapiens) (O95819 2-1239 limits assumed): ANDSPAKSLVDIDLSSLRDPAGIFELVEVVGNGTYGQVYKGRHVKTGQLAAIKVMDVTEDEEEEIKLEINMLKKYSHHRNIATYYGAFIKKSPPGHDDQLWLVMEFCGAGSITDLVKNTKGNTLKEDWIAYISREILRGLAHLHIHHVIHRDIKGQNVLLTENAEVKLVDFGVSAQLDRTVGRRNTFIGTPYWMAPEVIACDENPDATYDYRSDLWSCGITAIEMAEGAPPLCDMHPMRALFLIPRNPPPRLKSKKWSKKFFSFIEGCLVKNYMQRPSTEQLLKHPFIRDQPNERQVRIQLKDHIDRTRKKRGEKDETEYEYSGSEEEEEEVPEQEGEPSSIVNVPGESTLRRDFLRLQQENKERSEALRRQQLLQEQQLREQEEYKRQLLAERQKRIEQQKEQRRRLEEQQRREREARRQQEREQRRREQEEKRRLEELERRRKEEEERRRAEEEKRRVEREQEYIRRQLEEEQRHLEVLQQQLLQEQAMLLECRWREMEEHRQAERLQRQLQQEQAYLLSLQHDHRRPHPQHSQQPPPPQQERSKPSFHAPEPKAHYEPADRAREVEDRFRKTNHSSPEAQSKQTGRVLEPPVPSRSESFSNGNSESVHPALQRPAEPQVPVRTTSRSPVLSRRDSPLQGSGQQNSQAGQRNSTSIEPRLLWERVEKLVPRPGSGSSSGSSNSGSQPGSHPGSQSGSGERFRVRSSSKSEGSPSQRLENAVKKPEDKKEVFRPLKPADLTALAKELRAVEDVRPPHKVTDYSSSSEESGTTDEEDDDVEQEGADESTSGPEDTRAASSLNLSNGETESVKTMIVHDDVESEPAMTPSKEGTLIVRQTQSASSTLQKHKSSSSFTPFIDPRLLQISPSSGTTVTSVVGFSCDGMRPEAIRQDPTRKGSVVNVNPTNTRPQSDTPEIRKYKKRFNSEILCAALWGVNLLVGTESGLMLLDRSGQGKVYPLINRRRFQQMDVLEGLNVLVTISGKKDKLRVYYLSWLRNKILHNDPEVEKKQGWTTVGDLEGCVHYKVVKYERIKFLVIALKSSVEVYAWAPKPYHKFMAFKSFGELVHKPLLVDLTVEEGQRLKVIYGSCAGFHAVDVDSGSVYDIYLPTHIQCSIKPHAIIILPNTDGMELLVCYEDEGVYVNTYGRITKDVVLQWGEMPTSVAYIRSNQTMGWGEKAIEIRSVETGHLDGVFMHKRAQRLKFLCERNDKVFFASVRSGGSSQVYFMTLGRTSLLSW
Sequence of Calcium/calmodulin-dependent protein kinase type 1B (Homo sapiens) (Q6P2M8 whole entry): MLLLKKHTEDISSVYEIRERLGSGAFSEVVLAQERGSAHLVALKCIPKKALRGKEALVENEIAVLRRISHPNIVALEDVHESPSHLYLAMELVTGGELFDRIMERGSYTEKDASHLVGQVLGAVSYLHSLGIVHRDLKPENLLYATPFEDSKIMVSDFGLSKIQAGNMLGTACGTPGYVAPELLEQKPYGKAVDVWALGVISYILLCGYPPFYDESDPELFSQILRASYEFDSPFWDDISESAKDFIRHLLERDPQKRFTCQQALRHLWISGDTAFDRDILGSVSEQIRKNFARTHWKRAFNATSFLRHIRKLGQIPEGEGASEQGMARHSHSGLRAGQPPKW

Take `Nc1n[nH]c2nnc(-c3c(-c4ccccc4)nn4ccccc34)cc12`: the inhibition in test [1] is 2.16%; in test [2] it was 0.39%; in [3], -0.81%; in test [4], 11.2%; in test [5] it was 38%; in test [6], 9.17%. The inhibition in [7] was -4.11%; in test [9], 3.87%; in test [10], -3.93%; in test [11] it was -6.73%; in [12], -4.05%; in [13], 5.65%. Further, the inhibition in test [14] was 9.56%. For the same compound, the IC50 in test [8] was determined as 32.5 µM.

Consider `Oc1n[nH]c2nnc(-c3c(-c4ccccc4)nn4ccccc34)cc12`, for which the inhibition was 0.31% in test [1]; -0.91% in [2]; 3.76% in test [3]; 2.55% in test [4]; 0.95% in test [5]; 6.55% in [6]. Also, the inhibition was -8.15% in test [7]; 4.23% in test [9]; -0.3% in test [10]; -3.28% in test [11]; -4.11% in test [12]; 5.15% in test [13]. For the same compound, the inhibition in test [14] was 1.59%. In [8], the IC50 was determined as 10.2 µM.
